Measured values published in patent US6133302A, “5-(3-Phenyl-3-oxo-propyl)-1H-tetrazole derivatives” (Pharmacia & Upjohn SpA, priority 1997, dated 2000).

Biological target: T1, kynurenine-3-hydroxylase (Rattus norvegicus, UniProt O88867)
T1 construct: Rat liver mitochondrial extract was used as enzymatic preparation for this assay; from tissue; host or cells: rat liver mitochondrial extract
Assay: KYN-3-OH inhibition; kynurenine 3-hydroxylase assay based on enzymatic synthesis of tritiated water in rat liver mitochondrial extract
Format: biochemical
Details: 37° C., 30 min, pH 8.1, 0.025 mM L-Kynurenine, 0.8 mM NADPH
Protocol: The assay for kynurenine 3-hydroxylase is based on the enzymatic synthesis of tritiated water during the hydroxylation reaction. Radiolabeled water was quantified following selective adsorption of the isotopic substrate and its metabolite with activated charcoal.
Rat liver mitochondrial extract was used as enzymatic preparation for this assay.
The assay for kynurenine 3-hydroxylase activity was carried out at 37° C. for a time of 30 min. The reaction mixture having a total volume of […] was constituted of 44 mg of suspended extract, 100 mM Tris/Cl^- buffer pH 8.1, 10 mM EDTA, 100 mM KCl, 0.8 mM NADPH, 0.025 mM L-Kynurenine, 0.5 mCi L-(3,5-^3 H)Kynurenine (10 Ci/mmol) and […] of different concentration of inhibitor solutions. After the incubation, the reaction was terminated by adding 1 ml of 7.5% (W/v) activated charcoal, vortexed and centrifuged for 7 min.
A […] aliquot of supernatant was counted by scintillation spectroscopy in 5 ml of liquid scintillation.

T1 sequence (O88867 whole entry): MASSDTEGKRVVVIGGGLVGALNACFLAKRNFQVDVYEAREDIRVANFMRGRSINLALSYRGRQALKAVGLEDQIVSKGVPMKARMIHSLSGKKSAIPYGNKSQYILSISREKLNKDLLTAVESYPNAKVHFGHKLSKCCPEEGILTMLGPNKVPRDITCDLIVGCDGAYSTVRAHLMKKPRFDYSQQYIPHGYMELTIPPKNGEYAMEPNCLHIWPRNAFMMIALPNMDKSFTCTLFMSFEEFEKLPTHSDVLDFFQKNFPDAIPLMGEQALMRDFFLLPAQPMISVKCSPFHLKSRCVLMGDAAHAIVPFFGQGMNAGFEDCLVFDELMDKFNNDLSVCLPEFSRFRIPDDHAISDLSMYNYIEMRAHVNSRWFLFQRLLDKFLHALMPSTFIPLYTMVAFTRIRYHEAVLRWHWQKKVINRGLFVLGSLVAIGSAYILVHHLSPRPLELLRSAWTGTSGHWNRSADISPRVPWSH

IC50: 2.32 µM
Compound: O=C(CC(Cc1ccccc1)c1nnn[nH]1)c1ccc(Cl)c(Cl)c1 (stereo not shown) [PNU-168778, 5-[1-benzyl-3-(3,4-dichlorophenyl)-3-oxo-propyl]-1H-tetrazole]
